Reference: patent publication US20220396565A1 (Hoffmann-La Roche Inc., priority 2020, published 2022)
Counter-ions that a name gives are not always drawn.

Tested on: Acinetobacter baumannii ATCC17961
Assay: Antimicrobial susceptibility testing: 90% growth inhibitory concentration (IC90) determination, Iso-Sensitest broth
Assay type: cell-based
Details: Acinetobacter baumannii, ATCC17961, 90% growth inhibitory concentration, Acinetobacter baumannii ATCC17961, Iso-Sensitest broth; read-out: ATCC 17961 IC90
Experimental: The in vitro antimicrobial activity of the compounds was determined according to the following procedure:
The assay used a 10-points Iso-Sensitest broth medium to measure quantitatively the in vitro activity of the compounds against Acinetobacter baumannii ATCC17978 or ATCC17961.
Stock compounds in DMSO were serially twofold diluted (e.g. range from 10 to 0.02 μM final concentration) in 384 wells microtiter plates and inoculated with 49 μl the bacterial suspension in Iso-Sensitest medium to have a final cell concentration of ˜5×10^(5) CFU/ml in a final volume/well of 50 ul/well. Microtiter plates were incubated at 35±2° C.
Bacterial cell growth was determined with the measurement of optical density at k=600 nm each 20 minutes over a time course of 16 h. Growth inhibition was calculated during the logarithmic growth of the bacterial cells with determination of the concentration inhibiting 50% (IC50) and 90% (IC90) of the growth.
Table 1 provides the 90% growth inhibitory concentrations (IC90) in micromoles per liter of the compounds of present invention obtained against the strain Acinetobacter baumannii ATCC17978 or ATCC17961.

| IC90 | Structure (SMILES) |
| --- | --- |
| 110 nM | COc1ccc(-c2cnc(C(=O)Nc3ccc(C(=O)N4CCC(N)CC4)c(Cl)c3)n2C)c(F)c1F [Example 13, N-[4-(4-Aminopiperidine-1-carbonyl)-3-chloro-phenyl]-5-(2,3-difluoro-4-methoxy-phenyl)-1-methyl-imidazole-2-carboxamide formate] |
| 130 nM | Cn1c(-c2ccc(OCC#N)c(F)c2F)cnc1C(=O)Nc1ccc(C(=O)N2CCNCC2)c(Cl)c1 [Example 14, N-[3-chloro-4-(piperazine-1-carbonyl)phenyl]-5-[4-(cyanomethoxy)-2,3-difluoro-phenyl]-1-methyl-imidazole-2-carboxamide] |
| 70 nM | COc1ccc(-c2cnc(C(=O)Nc3ccc(C(=O)N4CC(OCCN)C4)c(Cl)c3)n2C)c(F)c1F [Example 18, N-[4-[3-(2-aminoethoxy)azetidine-1-carbonyl]-3-chloro-phenyl]-5-(2,3-difluoro-4-methoxy-phenyl)-1-methyl-imidazole-2-carboxamide formate] |
| 60 nM | Cn1c(-c2ccc(OCC#N)c(F)c2F)cnc1C(=O)Nc1ccc(C(=O)N2CCN(CCN)CC2)c(Cl)c1 [Example 19, N-[4-[4-(2-aminoethyl)piperazine-1-carbonyl]-3-chloro-phenyl]-5-[4-(cyanomethoxy)-2,3-difluoro-phenyl]-1-methyl-imidazole-2-carboxamide trifluoroacetate] |
| 100 nM | COc1ccc(-c2cnc(C(=O)Nc3ccc(C(=O)N4CCC(S(=O)(=O)N5CCNCC5)CC4)c(Cl)c3)n2C)c(F)c1F [Example 21, N-(3-chloro-4-(4-(piperazin-1-ylsulfonyl)piperidine-1-carbonyl)phenyl)-5-(2,3-difluoro-4-methoxyphenyl)-1-methyl-1H-imidazole-2-carboxamide formate] |
| 40 nM | COc1ccc(-c2cnc(C(=O)Nc3ccc(C(=O)N4CCC(OCCN)CC4)c(Cl)c3)n2C)c(F)c1F [Example 22, N-[4-[4-(2-aminoethoxy)piperidine-1-carbonyl]-3-chloro-phenyl]-5-(2,3-difluoro-4-methoxy-phenyl)-1-methyl-imidazole-2-carboxamide formate] |
| 60 nM | COc1ccc(-c2cnc(C(=O)Nc3ccc(C(=O)N4CCC(OCC5CNC5)CC4)c(Cl)c3)n2C)c(F)c1F [Example 23, N-[4-[4-(azetidin-3-ylmethoxy)piperidine-1-carbonyl]-3-chloro-phenyl]-5-(2,3-difluoro-4-methoxy-phenyl)-1-methyl-imidazole-2-carboxamide formate] |
| 70 nM | Cn1c(-c2ccc(OCF)c(F)c2F)cnc1C(=O)Nc1ccc(C(=O)N2CCN(C(=O)C3CCN(CC(N)=O)CC3)CC2)c(Cl)c1 [Example 24, N-(4-(4-(1-(2-amino-2-oxoethyl)piperidine-4-carbonyl)piperazine-1-carbonyl)-3-chlorophenyl)-5-(2,3-difluoro-4-(fluoromethoxy)phenyl)-1-methyl-1H-imidazole-2-carboxamide] |
| 30 nM | Cn1c(-c2ccc(OCF)cc2F)cnc1C(=O)Nc1ccc(C(=O)N2CCN(C(=O)N3CC[C@@H](N)C3)CC2)c(Cl)c1 [Example 26, (R)-N-(4-(4-(3-aminopyrrolidine-1-carbonyl)piperazine-1-carbonyl)-3-chlorophenyl)-5-(2-fluoro-4-(fluoromethoxy)phenyl)-1-methyl-1H-imidazole-2-carboxamide formate] |
| 190 nM | COc1ccc(-c2cnc(C(=O)Nc3ccc(C(=O)N4CCC(C(=O)N5CCN[C@H](CO)C5)CC4)c(Cl)c3)n2C)c(F)c1F [Example 29, N-[3-chloro-4-[4-[(3S)-3-(hydroxymethyl)piperazine-1-carbonyl]piperidine-1-carbonyl]phenyl]-5-(2,3-difluoro-4-methoxy-phenyl)-1-methyl-imidazole-2-carboxamide] |
| 170 nM | COc1ccc(-c2cnc(C(=O)Nc3ccc(C(=O)N4CCC(C(=O)N5CCN[C@@H](CO)C5)CC4)c(Cl)c3)n2C)c(F)c1F [Example 30, N-[3-chloro-4-[4-[(3R)-3-(hydroxymethyl)piperazine-1-carbonyl]piperidine-1-carbonyl]phenyl]-5-(2,3-difluoro-4-methoxy-phenyl)-1-methyl-imidazole-2-carboxamide] |
| 70 nM | COc1ccc(-c2cnc(C(=O)Nc3ccc(C(=O)N4CCC(C(=O)NCC5CNC5)CC4)c(Cl)c3)n2C)c(F)c1F [Example 31, N-(azetidin-3-ylmethyl)-1-[2-chloro-4-[[5-(2,3-difluoro-4-methoxy-phenyl)-1-methyl-imidazole-2-carbonyl]amino]benzoyl] piperidine-4-carboxamide formate] |
| 80 nM | COc1ccc(-c2cnc(C(=O)Nc3ccc(C(=O)N4CCC(C(=O)NC[C@H](C)N)CC4)c(Cl)c3)n2C)c(F)c1F [Example 32, N-[(2S)-2-aminopropyl]-1-[2-chloro-4-[[5-(2,3-difluoro-4-methoxy-phenyl)-1-methyl-imidazole-2-carbonyl]amino]benzoyl] piperidine-4-carboxamide] |
| 90 nM | COc1ccc(-c2cnc(C(=O)Nc3ccc(C(=O)N4CCC(C(=O)N5CC(N)C5)CC4)c(Cl)c3)n2C)c(F)c1F [Example 33, N-[4-[4-(3-aminoazetidine-1-carbonyl)piperidine-1-carbonyl]-3-chloro-phenyl]-5-(2,3-difluoro-4-methoxy-phenyl)-1-methyl-imidazole-2-carboxamide trifluoroacetate] |
| 70 nM | COc1ccc(-c2cnc(C(=O)Nc3ccc(C(=O)N4CCC(C(=O)N5CC(CN)C5)CC4)c(Cl)c3)n2C)c(F)c1F [Example 34, N-[4-[4-[3-(aminomethyl)azetidine-1-carbonyl]piperidine-1-carbonyl]-3-chloro-phenyl]-5-(2,3-difluoro-4-methoxy-phenyl)-1-methyl-imidazole-2-carboxamidetrifluoroacetate] |
| 60 nM | COc1ccc(-c2cnc(C(=O)Nc3ccc(C(=O)N4CCC(C(=O)NCC5CCNCC5)CC4)c(Cl)c3)n2C)c(F)c1F [Example 35, 1-[2-chloro-4-[[5-(2,3-difluoro-4-methoxy-phenyl)-1-methyl-imidazole-2-carbonyl]amino]benzoyl]-N-(4-piperidylmethyl)piperidine-4-carboxamide formate] |
| 130 nM | COc1ccc(-c2cnc(C(=O)Nc3ccc(C(=O)N4CCC(C(=O)NCc5ccncc5)CC4)c(Cl)c3)n2C)c(F)c1F [Example 36, 1-[2-chloro-4-[[5-(2,3-difluoro-4-methoxy-phenyl)-1-methyl-imidazole-2-carbonyl]amino]benzoyl]-N-(4-pyridylmethyl)piperidine-4-carboxamide] |
| 60 nM | COc1ccc(-c2cnc(C(=O)Nc3ccc(C(=O)N4CCC(C(=O)NC5CCNCC5)CC4)c(Cl)c3)n2C)c(F)c1F [Example 38, 1-[2-chloro-4-[[5-(2,3-difluoro-4-methoxy-phenyl)-1-methyl-imidazole-2-carbonyl]amino]benzoyl]-N-(4-piperidyl)piperidine-4-carboxamide formate] |
| 70 nM | COc1ccc(-c2cnc(C(=O)Nc3ccc(C(=O)N4CCC(C(=O)N5CCC(N)CC5)CC4)c(Cl)c3)n2C)c(F)c1F [Example 39, N-[4-[4-(4-aminopiperidine-1-carbonyl)piperidine-1-carbonyl]-3-chloro-phenyl]-5-(2,3-difluoro-4-methoxy-phenyl)-1-methyl-imidazole-2-carboxamide formate] |

Same assay, conditions: Acinetobacter baumannii, ATCC17961, read-out: ATCC 17961 IC90

| Structure (SMILES) | IC90 |
| --- | --- |
| Cn1c(-c2ccc(OCC#N)c(F)c2F)cnc1C(=O)Nc1ccc(C(=O)N2CCN(C(=O)N[C@@H]3CNC[C@H]3O)CC2)c(Cl)c1 [Example 7] | 70 nM |
| COc1ccc(-c2cnc(C(=O)Nc3ccc(C(=O)N4CCC(NC(=O)CC5CCNC5)CC4)c(Cl)c3)n2C)c(F)c1F (stereo not shown) [Example 11, N-[3-Chloro-4-[4-[(2-pyrrolidin-3-ylacetyl)amino]piperidine-1-carbonyl]phenyl]-5-(2,3-difluoro-4-methoxy-phenyl)-1-methyl-imidazole-2-carboxamide formate] | 70 nM |
| COc1ccc(-c2cnc(C(=O)Nc3ccc(C(=O)N4CCC(CCN)CC4)c(Cl)c3)n2C)c(F)c1F [Example 17, N-[4-[4-(2-Aminoethyl)piperidine-1-carbonyl]-3-chloro-phenyl]-5-(2,3-difluoro-4-methoxy-phenyl)-1-methyl-imidazole-2-carboxamide formate] | 30 nM |
| Cn1c(-c2ccc(OCF)cc2F)cnc1C(=O)Nc1ccc(C(=O)N2CCN(C(=O)C3CCNCC3)CC2)c(Cl)c1 [Example 25, N-(3-chloro-4-(4-(piperidine-4-carbonyl)piperazine-l-carbonyl)phenyl)-5-(2-fluoro-4-(fluoromethoxy)phenyl)-1-methyl-1H-imidazole-2-carboxamide formate] | 60 nM |
| COc1ccc(-c2cnc(C(=O)Nc3ccc(C(=O)N4CCC(C(=O)N[C@@H](C)CN)CC4)c(Cl)c3)n2C)c(F)c1F [Example 28, N-[(1S)-2-Amino-1-methyl-ethyl]-1-[2-chloro-4-[[5-(2,3-difluoro-4-methoxy-phenyl)-1-methyl-imidazole-2-carbonyl]amino]benzoyl]piperidine-4-carboxamide trifluoroacetate] | 170 nM |
| COc1ccc(-c2cnc(C(=O)Nc3ccc(C(=O)N4CCC(C(=O)N5C[C@H](N)[C@@H](F)C5)CC4)c(Cl)c3)n2C)c(F)c1F [Example 37, N-[4-[4-[(3S,4S)-3-amino-4-fluoro-pyrrolidine-1-carbonyl]piperidine-1-carbonyl]-3-chloro-phenyl]-5-(2,3-difluoro-4-methoxy-phenyl)-1-methyl-imidazole-2-carboxamide trifluoroacetate] | 170 nM |
